Results: patent US20250034139A1, “AMINE COMPOUNDS HAVING ANTI-INFLAMMATORY, ANTIFUNGAL, ANTIPARASITIC, AND ANTICANCER ACTIVITY” (PHARMA CINQ, LLC, priority 2013, published 2025)

Columns and labels:
[1] = system: THP-1 cells; experiment: Example D: LPS-triggered THP-1 cell death assay, acute/5-hour and chronic/48-hour; assay type: cell-based, Human; settings: 10 ng/ml LPS, 0.1 μM test compound, 48 hours
Method: Compounds of the invention were tested at 0.1 μM versus AC in the LPS-triggered THP-1 cell death assay. Both acute/5-hour and chronic/48-hour phases of cell death were assessed. Compounds were screened in batches with DMSO as the negative control and AC as the high activity control.

[2] = system: 4T1 murine breast cancer cells; experiment: Example S: in vitro anticancer screen, 4T1 cells, Wst1; assay type: cell-based, mouse; settings: Mus musculus, 4T1, 18 h, 18 hr, Wst1; for viability at 1 µM: read-out: 4T1 1 μM, percent of cancer cell survival relative to vehicle treated cells; for viability at 5 µM: read-out: 4T1 5 μM, percent of cancer cell survival relative to vehicle treated cells
Summary of the method: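 Read-out is Wst1 absorbance (450 nm, reference 630 nm) after roughly 2 hr dye incubation, giving percent cell survival versus vehicle. Before that, compounds at 1 μM or 5 μM were applied for 18 hr to 4T1 cells plated at 1×10^4 per well.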

[3] = system: PC3 human prostate cancer cells; experiment: Example S: in vitro anticancer screen, PC-3 cells, Wst1; assay type: cell-based; settings: Homo sapiens, PC-3, approximately 20 hours, Wst1, read-out: PC-3, percent of cancer cell survival relative to vehicle treated cells
Method: Activity against PC3 human prostate cancer cells in vitro was assessed by a similar method. PC-3 prostate cancer cells were plated at 2×10^4 cells/well in 96 well flat bottom tissue culture plates, and incubated for approximately 20 hours with vehicle or test compounds at concentrations of 0.4, 0.5 or 2.5 μM as indicated for specific compounds in the right-hand column of Table 37. A 1/10th volume of Wst1 dye was added/well and incubated for two hours in the cell culture incubator. Samples were analyzed in triplicate on an EL800 Universal Microplate Reader at 450 nm, reference wavelength 630 nm.
Numerical values in the Table 37 represent percent of cancer cell survival relative to vehicle treated cells at the indicated concentrations, with values under 100 indicating anticancer cytotoxic activity at the drugs concentrations tested.

[4] = system: PC-3 prostate cancer cells; experiment: Example T: sensitisation of PC-3 cells to doxorubicin, oxaliplatin, paclitaxel or vincristine, Wst1; assay type: cell-based, human; settings: PC-3 cells, 72 hours; for viability at 0.4 µM: compound 0.4 μM alone; for Doxorubicin 3.5 μM: percent cell survival / Oxaliplatin 100 μM: percent cell survival / Paclitaxel 50 μM: percent cell survival / Vincristine 100 nM: percent cell survival: chemotherapy agent alone normalized to 100%; for viability at 2.5 µM: compound 2.5 μM alone
[5] = Homo sapiens, Wst1, vehicle = 100, read-out: No Chemo: percent cell survival
[6] = compound 0.4 μM + doxorubicin 3.5 μM
[7] = compound 0.4 μM + oxaliplatin 100 μM
[8] = compound 0.4 μM + paclitaxel 50 μM
[9] = compound 0.4 μM + vincristine 100 nM
[10] = compound 2.5 μM + doxorubicin 3.5 μM
[11] = compound 2.5 μM + oxaliplatin 100 μM
[12] = compound 2.5 μM + paclitaxel 50 μM
[13] = compound 2.5 μM + vincristine 100 nM

Structure (SMILES) | Viable cell percent change, Chronic/48-hour, Mean [1] [%] | viability at 1 µM [2] [%] | viability at 5 µM [2] [%] | viability at 0.4 µM [3] [%] | viability at 0.4 µM [4, 5] [%] | Doxorubicin 3.5 μM: percent cell survival [4, 6] [%] | Oxaliplatin 100 μM: percent cell survival [4, 7] [%] | Paclitaxel 50 μM: percent cell survival [4, 8] [%] | Vincristine 100 nM: percent cell survival [4, 9] [%] | viability at 2.5 µM [3] [%] | viability at 2.5 µM [4, 5] [%] | Doxorubicin 3.5 μM: percent cell survival [4, 10] [%] | Oxaliplatin 100 μM: percent cell survival [4, 11] [%] | Paclitaxel 50 μM: percent cell survival [4, 12] [%] | Vincristine 100 nM: percent cell survival [4, 13] [%] | other results
Fc1ccccc1OCCCCCCCCNc1ccnc2ccccc12 [DB, N-[8-(2-Fluorophenoxy)octyl]quinolin-4-amine] | 20.47 | 20.1 | 22.2 | 24.7 | 24.7 | 56 | 62.3 | 40.3 | 29.6 | – | – | – | – | – | – | –
c1ccc(Oc2ccccc2Nc2ccnc3ccccc23)cc1 [DF, N-(2-Phenoxyphenyl)quinolin-4-amine] | 39.26 | 27.1 | 20.8 | 102 | 102 | 88.7 | 96.5 | 89.4 | 95.4 | – | – | – | – | – | – | –
c1ccc(COc2ccc(Nc3ccnc4ccccc34)cc2)cc1 [DJ, N-[4-(Benzyloxy)phenyl]quinolin-4-amine] | 22.32 | 89 | 66.9 | – | – | – | – | – | – | 85.9 | 85.9 | 116.2 | 137.1 | 137.1 | 115.3 | –
CCCCCCOc1ccc(Nc2ccnc3ccccc23)cc1 [DL, N-[4-(Hexyloxy)phenyl]quinolin-4-amine] | 61.01 | 70.9 | 21 | – | – | – | – | – | – | 43 | 43 | 193.5 | 172.6 | 164.8 | 164.9 | –
c1ccc(COc2cccc(Nc3ccnc4ccccc34)c2)cc1 [DM, N-[3-(Benzyloxy)phenyl]quinolin-4-amine] | 34.67 | 128 | 47.8 | – | – | – | – | – | – | 45.6 | 45.6 | 79.2 | 91.1 | 105.4 | 92.1 | –
CCCCCCOc1cccc(Nc2ccnc3ccccc23)c1 [DN, N-[3-(Hexyloxy)phenyl]quinolin-4-amine] | 77.15 | 104 | 56.7 | – | – | – | – | – | – | 31.7 | 31.7 | 64.1 | 78 | 64.7 | 72.3 | –
c1ccc(COc2ccccc2Nc2ccnc3ccccc23)cc1 [DO, N-[2-(Benzyloxy)phenyl]quinolin-4-amine] | 36.46 | 116 | 35.2 | – | – | – | – | – | – | 59.2 | 59.2 | 79.9 | 89.9 | 93.4 | 90.1 | –
CCCCCCOc1ccccc1Nc1ccnc2ccccc12 [DP, N-[2-(Hexyloxy)phenyl]quinolin-4-amine] | 42.36 | 72.5 | 25.4 | – | – | – | – | – | – | 37.5 | 37.5 | 65.3 | 77.4 | 64.6 | 74.1 | –
c1ccc(CCNc2ccnc3ccccc23)cc1 [DR, N-Phenethylquinolin-4-amine] | 27.12 | 77.9 | 27.2 | – | – | – | – | – | – | 31.5 | 31.5 | 59.9 | 68.7 | 49.2 | 35.5 | –
CCCCCCOc1ccccc1CNc1ccnc2ccccc12 [DS, N-[2-(Hexyloxy)benzyl]quinolin-4-amine] | 56.67 | 35.6 | 25.5 | 70 | 70 | 86.4 | 97 | 97.1 | 98.6 | – | – | – | – | – | – | –
O=C(NCCCCCCCCNc1ccnc2ccccc12)c1ccccc1 [DY, N-[8-(Quinolin-4-ylamino)octyl]benzamide] | 45.25 | 88.9 | 60.5 | – | – | – | – | – | – | – | – | – | – | – | – | viability at 5 µM ([3]; 5 μM): 16.1%; viability at 5 µM ([4]; Homo sapiens, compound 5 μM alone, Wst1, vehicle = 100, read-out: No Chemo: percent cell survival): 16.1%; Doxorubicin 3.5 μM: percent cell survival ([4]; compound 5 μM + doxorubicin 3.5 μM): 21.2%; Oxaliplatin 100 μM: percent cell survival ([4]; compound 5 μM + oxaliplatin 100 μM): 20.6%; Paclitaxel 50 μM: percent cell survival ([4]; compound 5 μM + paclitaxel 50 μM): 23.3%; Vincristine 100 nM: percent cell survival ([4]; compound 5 μM + vincristine 100 nM): 18.3%
COc1cccc(C(=O)NCCCCCCCCNc2ccnc3ccccc23)c1 [DZ, 3-Methoxy-N-[8-(quinolin-4-ylamino)octyl]benzamide] | 73.5 | 23.7 | 17.4 | 84.8 | 84.8 | 85.6 | 86.7 | 71.8 | 89 | – | – | – | – | – | – | –
COc1ccc(C(=O)NCCCCCCCCNc2ccnc3ccccc23)cc1 [EA, 4-Methoxy-N-[8-(quinolin-4-ylamino)octyl]benzamide] | 73.48 | 31.1 | 36.8 | 108 | 108 | 87.8 | 89 | 73.5 | 84.5 | – | – | – | – | – | – | –
O=C(NCCCCCCCCNc1ccnc2ccccc12)c1ccccn1 [EE, N-[8-(Quinolin-4-ylamino)octyl]picolinamide] | 24.32 | 24 | 18.1 | 34 | 34 | 66.4 | 70.8 | 45.3 | 47.1 | – | – | – | – | – | – | –
O=C(NCCCCCCCCNc1ccnc2ccccc12)c1ccncc1 [EG, N-[8-(Quinolin-4-ylamino)octyl]isonicotinamide] | 60.59 | 34.7 | 27.7 | 92.2 | 92.2 | 91.3 | 96.2 | 95.3 | 88.5 | – | – | – | – | – | – | –
CCCCCCNc1ccnc2ccccc12 [EI, N-Hexylquinolin-4-amine] | 39.53 | 95 | 45.8 | – | – | – | – | – | – | 31.2 | 31.2 | 66.1 | 75.1 | 50.1 | 69.5 | –
